One compound from PMC6848974 (Science translational medicine, 2019) can be followed below.

SMILES strings stand for the structures.

The assay has as its system A/WSN/33-nanoLuc or Ca/09. It counts as cell-based, influenza A virus.

For the compound `O=c1nc(NO)ccn1[C@@H]1O[C@H](CO)[C@@H](O)[C@H]1O` [NHC, N^4-hydroxycytidine], the “drug concentration resulting in virus extinction” value was not below 4 µM and the “repeat exposure of NHC-experienced virus populations” value was “again rapidly sterilizing”.
